Results published in PubChem BioAssay AID248 (DTP/NCI, 2004).
Several values for one entry are separate records, joined by “and”; a condition that tells them apart may be missing. Equal entries are not always repeated. Inconclusive results and toxic doses are left out. No stated cut-off is given here; in the data, active means T/C of 150% or more; inactive means T/C below 125%.

System: L1210 leukemia ip in BDF1 mice, survival T/C
Experiment: NCI In Vivo Anticancer Drug Screen. Data for tumor model L1210 Leukemia (intraperitoneal) in B6D2F1 (BDF1) mice
Details: endpoint: mean survival time, higher = longer survival
Summary of the method: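 Mice bearing the transplanted tumor received compound or vehicle. Survival of the treated group was divided by that of the vehicle-treated control group to give the ratio.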

[1] = dose: 100.0 mg/kg/injection, schedule: Q04DX003 (ip), vehicle: saline
[2] = dose: 400.0 mg/kg/injection, schedule: Q01DX009 (ip), vehicle: saline with Tween-80
[3] = dose: 100.0 mg/kg/injection, schedule: Q04DX002 (ip), vehicle: saline

Measured: T/C

CS(=O)(=O)OCCC(=O)NCCCCNC(=O)CCOS(C)(=O)=O
inactive: dose: 100.0 mg/kg/injection, schedule: Q01DX001 (ip), vehicle: saline 104 % of control | [1] 115 % of control | dose: 200.0 mg/kg/injection, schedule: Q01DX001 (ip), vehicle: saline 117 % of control | dose: 264.0 mg/kg/injection, schedule: Q01DX001 (ip), vehicle: saline 103 % of control and 121 % of control | dose: 264.0 mg/kg/injection, schedule: Q01DX009 (ip), vehicle: saline 113 % of control | dose: 400.0 mg/kg/injection, schedule: Q01DX001 (ip), vehicle: saline 97 % of control | [2] 122 % of control | dose: 400.0 mg/kg/injection, schedule: Q01DX009 (ip), vehicle: saline 112 % of control

CC1(C)N=C(N)N=C(N)N1c1cccc([N+](=O)[O-])c1
inactive: dose: 25.0 mg/kg/injection, schedule: Q04DX002 (ip), vehicle: saline 93 % of control | dose: 25.0 mg/kg/injection, schedule: Q04DX003 (ip), vehicle: saline 106 % of control | dose: 50.0 mg/kg/injection, schedule: Q04DX002 (ip), vehicle: saline 96 % of control | dose: 50.0 mg/kg/injection, schedule: Q04DX003 (ip), vehicle: saline 105 % of control | [3] 91 % of control | [1] 98 % of control and 111 % of control

Brc1ccc(N2N=C(c3ccccc3)N(c3ccc(Br)cc3)N=C2c2ccccc2)cc1
inactive: dose: 100.0 mg/kg/injection, schedule: Q01DX001 (ip), vehicle: other 90 % of control | dose: 100.0 mg/kg/injection, schedule: Q04DX003 (ip), vehicle: other 104 % of control | dose: 200.0 mg/kg/injection, schedule: Q01DX001 (ip), vehicle: other 93 % of control | dose: 200.0 mg/kg/injection, schedule: Q04DX003 (ip), vehicle: other 89 % of control | dose: 400.0 mg/kg/injection, schedule: Q01DX001 (ip), vehicle: other 95 % of control | dose: 400.0 mg/kg/injection, schedule: Q04DX003 (ip), vehicle: other 89 % of control

CCN(CC)CC(=O)NCC(CCN1CCCC1)(c1cccc2ccccc12)C(C)C (configuration not stated)
inactive: dose: 25.0 mg/kg/injection, schedule: Q01DX009 (ip), vehicle: saline 101 % of control | dose: 50.0 mg/kg/injection, schedule: Q01DX009 (ip), vehicle: saline 98 % of control | dose: 100.0 mg/kg/injection, schedule: Q01DX009 (ip), vehicle: saline 101 % of control

CCCCCOC(c1ccc2c(c1)OCO2)C(C)Br (configuration not stated)
inactive: [3] 96 % of control | dose: 200.0 mg/kg/injection, schedule: Q04DX002 (ip), vehicle: saline 104 % of control | dose: 400.0 mg/kg/injection, schedule: Q04DX002 (ip), vehicle: saline 90 % of control

c1ccc(P(CCP(c2ccccc2)c2ccccc2)CCP(c2ccccc2)c2ccccc2)cc1
inactive: dose: 100.0 mg/kg/injection, schedule: Q04DX003 (ip), vehicle: Klucel (hydroxypropylcellulose) (HPC) 91 % of control | dose: 200.0 mg/kg/injection, schedule: Q04DX003 (ip), vehicle: Klucel (hydroxypropylcellulose) (HPC) 96 % of control | dose: 400.0 mg/kg/injection, schedule: Q04DX003 (ip), vehicle: Klucel (hydroxypropylcellulose) (HPC) 96 % of control

CCOP(=S)(NCCOC)OCC
inactive: dose: 100.0 mg/kg/injection, schedule: Q01DX009 (ip), vehicle: saline with Tween-80 97 % of control | dose: 200.0 mg/kg/injection, schedule: Q01DX009 (ip), vehicle: saline with Tween-80 94 % of control | [2] 95 % of control
